# Patent US10519154B2, “7-substituted 1-pyridyl-naphthyridine-3-carboxylic acid amides and use thereof” (Bayer Pharma Aktiengesellschaft, priority 2016, dated 2019)
# Biological target: T1, human M2 receptor (Homo sapiens, UniProt P08172)
# T1 sequence (P08172 1-466): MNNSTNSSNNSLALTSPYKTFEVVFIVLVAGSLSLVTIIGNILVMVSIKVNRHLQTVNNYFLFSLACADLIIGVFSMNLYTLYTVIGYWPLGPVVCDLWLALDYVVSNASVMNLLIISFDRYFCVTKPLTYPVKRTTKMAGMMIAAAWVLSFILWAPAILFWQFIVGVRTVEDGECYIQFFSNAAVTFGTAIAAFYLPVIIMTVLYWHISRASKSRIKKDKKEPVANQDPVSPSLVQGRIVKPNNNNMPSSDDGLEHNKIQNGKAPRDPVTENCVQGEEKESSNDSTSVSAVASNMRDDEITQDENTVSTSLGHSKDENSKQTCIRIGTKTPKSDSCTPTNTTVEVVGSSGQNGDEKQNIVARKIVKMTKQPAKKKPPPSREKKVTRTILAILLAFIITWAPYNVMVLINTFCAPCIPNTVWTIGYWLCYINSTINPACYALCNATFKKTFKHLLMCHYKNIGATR
# Experiment: Functional M2-GIRK1/4 activation test: allosteric potency (EC50) and efficiency
# Details: for EC50: Receptor activity EC50, CHO-DUKX-M2-GIRK cells, acetylcholine at EC20, in some cases mean of two or more determinations; for Emax: read-out: Efficiency, boosting of the acetylcholine effect at EC20 acetylcholine concentration, CHO-DUKX-M2-GIRK cells
SMILES,EC50 [nM],Emax [%]
"O=C(NC(c1ccc(F)cc1)C(F)(F)F)c1cn(-c2ncc(F)cc2F)c2nc(N3C[C@@H](O)CC3=O)ccc2c1=O (mixture of isomers) [Example 11, 1-(3,5-Difluoropyridin-2-yl)-7-[(4S)-4-hydroxy-2-oxopyrrolidin-1-yl]-4-oxo-N-[2,2,2-trifluoro-1-(4-fluorophenyl)ethyl]-1,4-dihydro-1,8-naphthyridine-3-carboxamide]",37,99.5
"O=C(N[C@H](C1CC1)C(F)(F)F)c1cn(-c2ncc(F)cc2F)c2nc(N3CC4CC4(O)C3)ccc2c1=O (mixture of isomers) [Example 37, N-[(1R)-1-Cyclopropyl-2,2,2-trifluoroethyl]-1-(3,5-difluoropyridin-2-yl)-7-[1-hydroxy-3-azabicyclo[3.1.0]hex-3-yl]-4-oxo-1,4-dihydro-1,8-naphthyridine-3-carboxamide]",21,99
"CC[C@@H](NC(=O)c1cn(-c2ncc(F)cc2F)c2nc(N3CC4CC4(O)C3)ccc2c1=O)C(F)(F)F (mixture of isomers) [Example 43, 1-(3,5-Difluoropyridin-2-yl)-7-[1-hydroxy-3-azabicyclo[3.1.0]hex-3-yl]-4-oxo-N-[(2R)-1,1,1-trifluorobutan-2-yl]-1,4-dihydro-1,8-naphthyridine-3-carboxamide]",65,100
"CC[C@@H](NC(=O)c1cn(-c2ncc(F)cc2F)c2nc(N3CCC(C)(O)C3)ccc2c1=O)C(F)(F)F (mixture of isomers) [Example 46, 1-(3,5-Difluoropyridin-2-yl)-7-[3-hydroxy-3-methylpyrrolidin-1-yl]-4-oxo-N-[(2R)-1,1,1-trifluorobutan-2-yl]-1,4-dihydro-1,8-naphthyridine-3-carboxamide]",385,97
"CC[C@@H](NC(=O)c1cn(-c2ncccc2Cl)c2nc(N3CC4CC4(O)C3)ccc2c1=O)C(F)(F)F (mixture of isomers) [Example 47, 1-(3-Chloropyridin-2-yl)-7-[1-hydroxy-3-azabicyclo[3.1.0]hex-3-yl]-4-oxo-N-[(2R)-1,1,1-trifluorobutan-2-yl]-1,4-dihydro-1,8-naphthyridine-3-carboxamide]",640,89
"CC[C@@H](NC(=O)c1cn(-c2ncc(F)cc2Cl)c2nc(N3CC4CC4(O)C3)ccc2c1=O)C(F)(F)F (mixture of isomers) [Example 48, 1-(3-Chloro-5-fluoropyridin-2-yl)-7-[1-hydroxy-3-azabicyclo[3.1.0]hex-3-yl]-4-oxo-N-[(2R)-1,1,1-trifluorobutan-2-yl]-1,4-dihydro-1,8-naphthyridine-3-carboxamide]",74,92.5
"CC[C@@H](NC(=O)c1cn(-c2ncc(F)cc2Cl)c2nc(N3CCC(C)(O)C3)ccc2c1=O)C(F)(F)F (mixture of isomers) [Example 49, 1-(3-Chloro-5-fluoropyridin-2-yl)-7-[3-hydroxy-3-methylpyrrolidin-1-yl]-4-oxo-N-[(2R)-1,1,1-trifluorobutan-2-yl]-1,4-dihydro-1,8-naphthyridine-3-carboxamide]",560,97
"O=C(N[C@H](C1CC1)C(F)(F)F)c1cn(-c2ncc(F)cc2Cl)c2nc(N3CC4CC4(O)C3)ccc2c1=O (mixture of isomers) [Example 52, 1-(3-Chloro-5-fluoropyridin-2-yl)-N-[(1R)-1-cyclopropyl-2,2,2-trifluoroethyl]-7-[1-hydroxy-3-azabicyclo[3.1.0]hex-3-yl]-4-oxo-1,4-dihydro-1,8-naphthyridine-3-carboxamide]",48,90.5
"CC1(O)CCN(c2ccc3c(=O)c(C(=O)N[C@H](C4CC4)C(F)(F)F)cn(-c4ncc(F)cc4Cl)c3n2)C1 (mixture of isomers) [Example 53, 1-(3-Chloro-5-fluoropyridin-2-yl)-N-[(1R)-1-cyclopropyl-2,2,2-trifluoroethyl]-7-[3-hydroxy-3-methylpyrrolidin-1-yl]-4-oxo-1,4-dihydro-1,8-naphthyridine-3-carboxamide]",555,96.5
"O=C(N[C@H](C1CC1)C(F)(F)F)c1cn(-c2ncccc2Cl)c2nc(N3CC4CC4(O)C3)ccc2c1=O (mixture of isomers) [Example 54, 1-(3-Chloropyridin-2-yl)-N-[(1R)-1-cyclopropyl-2,2,2-trifluoroethyl]-7-[1-hydroxy-3-azabicyclo[3.1.0]hex-3-yl]-4-oxo-1,4-dihydro-1,8-naphthyridine-3-carboxamide]",350,94.7
"O=C(NC(C(F)(F)F)C(F)(F)F)c1cn(-c2ncc(F)cc2F)c2nc(N3CC4CC4(O)C3)ccc2c1=O (racemic) [Example 57, 1-(3,5-Difluoropyridin-2-yl)-N-(1,1,1,3,3,3-hexafluoropropan-2-yl)-7-[1-hydroxy-3-azabicyclo[3.1.0]hex-3-yl]-4-oxo-1,4-dihydro-1,8-naphthyridine-3-carboxamide]",10,94
"CC1(O)CCN(c2ccc3c(=O)c(C(=O)Nc4c(Cl)cccc4Cl)cn(-c4ncc(F)cc4F)c3n2)C1 (racemic) [Example 69, N-(2,6-Dichlorophenyl)-1-(3,5-difluoropyridin-2-yl)-7-[3-hydroxy-3-methylpyrrolidin-1-yl]-4-oxo-1,4-dihydro-1,8-naphthyridine-3-carboxamide]",365,92
"CC(NC(=O)c1cn(-c2ncc(F)cc2F)c2nc(N3C[C@@H](O)CC3=O)ccc2c1=O)C(F)(F)C(F)(F)F (mixture of isomers) [Example 76, 1-(3,5-Difluoropyridin-2-yl)-7-[(4S)-4-hydroxy-2-oxopyrrolidin-1-yl]-4-oxo-N-[3,3,4,4,4-pentafluorobutan-2-yl]-1,4-dihydro-1,8-naphthyridine-3-carboxamide]",35,94
"O=C(NC(c1ccccc1Cl)C(F)(F)F)c1cn(-c2ncc(F)cc2F)c2nc(N3C[C@@H](O)[C@H](O)C3)ccc2c1=O (mixture of isomers) [Example 83, N-[1-(2-Chlorophenyl)-2,2,2-trifluoroethyl]-1-(3,5-difluoropyridin-2-yl)-7-[(3R,4R)-3,4-dihydroxypyrrolidin-1-yl]-4-oxo-1,4-dihydro-1,8-naphthyridine-3-carboxamide]",17,100
"CC(NC(=O)c1cn(-c2ncc(F)cc2F)c2nc(N3C[C@@H](O)[C@H](O)C3)ccc2c1=O)C(F)(F)C(F)(F)F (mixture of isomers) [Example 88, 1-(3,5-Difluoropyridin-2-yl)-7-[(3R,4R)-3,4-dihydroxypyrrolidin-1-yl]-4-oxo-N-[3,3,4,4,4-pentafluorobutan-2-yl]-1,4-dihydro-1,8-naphthyridine-3-carboxamide]",59,99.5
"CCC(NC(=O)c1cn(-c2ncc(F)cc2F)c2nc(N3C[C@@H](O)CC3=O)ccc2c1=O)C(F)(F)C(F)(F)F (mixture of isomers) [Example 92, 1-(3,5-Difluoropyridin-2-yl)-7-[(4S)-4-hydroxy-2-oxopyrrolidin-1-yl]-4-oxo-N-[1,1,1,2,2-pentafluoropentan-3-yl]-1,4-dihydro-1,8-naphthyridine-3-carboxamide]",17,100
"CCC(NC(=O)c1cn(-c2ncc(F)cc2F)c2nc(N3C[C@@H](O)[C@H](O)C3)ccc2c1=O)C(F)(F)C(F)(F)F (mixture of isomers) [Example 95, 1-(3,5-Difluoropyridin-2-yl)-7-[(3R,4R)-3,4-dihydroxypyrrolidin-1-yl]-4-oxo-N-[1,1,1,2,2-pentafluoropentan-3-yl]-1,4-dihydro-1,8-naphthyridine-3-carboxamide]",26,100
"CC1C(=O)N(c2ccc3c(=O)c(C(=O)N[C@@H](C4CC4)C(F)(F)F)cn(-c4ncc(F)cc4F)c3n2)CC1O (mixture of isomers) [Example 104, N-[(1S)-1-Cyclopropyl-2,2,2-trifluoroethyl]-1-(3,5-difluoropyridin-2-yl)-7-[4-hydroxy-3-methyl-2-oxopyrrolidin-1-yl]-4-oxo-1,4-dihydro-1,8-naphthyridine-3-carboxamide]",250,98.5
"CC[C@H](NC(=O)c1cn(-c2ncc(F)cc2F)c2nc(N3CC(O)C(C)C3=O)ccc2c1=O)C(F)(F)F (mixture of isomers) [Example 108, 1-(3,5-Difluoropyridin-2-yl)-7-[4-hydroxy-3-methyl-2-oxopyrrolidin-1-yl]-4-oxo-N-[(2S)-1,1,1-trifluorobutan-2-yl]-1,4-dihydro-1,8-naphthyridine-3-carboxamide]",185,84
"CC1C(=O)N(c2ccc3c(=O)c(C(=O)N[C@@H](C)C(F)(F)F)cn(-c4ncc(F)cc4F)c3n2)CC1O (mixture of isomers) [Example 112, 1-(3,5-Difluoropyridin-2-yl)-7-[4-hydroxy-3-methyl-2-oxopyrrolidin-1-yl]-4-oxo-N-[(2S)-1,1,1-trifluoropropan-2-yl]-1,4-dihydro-1,8-naphthyridine-3-carboxamide]",525,98
"CC[C@@H](NC(=O)c1cn(-c2ncc(F)cc2F)c2nc(N3CCCC(O)C3)ccc2c1=O)C(F)(F)F (mixture of isomers) [Example 117, 1-(3,5-Difluoropyridin-2-yl)-7-[3-hydroxypiperidin-1-yl]-4-oxo-N-[(2R)-1,1,1-trifluorobutan-2-yl]-1,4-dihydro-1,8-naphthyridine-3-carboxamide]",400,94.5
